Data on five compounds can be found in patent US8703199B2, “Pharmaceutical compositions of adsorbates of amorphous drug” (Bend Research, Inc., priority 2001, dated 2014).

A value given as a limit tells only on which side of the number the result lay.

A word on the AUC: it is the area under the concentration-time curve, a measure of exposure.

Holding throughout (assay type): physicochemical
The nature of series [1]: in vitro dissolution test, microcentrifuge method, Drug 2 in PBS (alone or with Pluronic F-127). The following applies: for AUC / Drug 2 Concentration: PBS pH 6.5. Further details: AUC / AUC90: concentration or dose not given beside the values. The procedure: (§1) The tubes were placed in a 37° C. temperature-controlled chamber, and 1.8 mL phosphate buffered saline (PBS) at pH 6.5 and 290 mOsm/kg was added. The solutions were quickly mixed using a vortex mixer for about 60 seconds, and then centrifuged at 13,000 G at 37° C. for […]. The resulting supernatant solution was then sampled and diluted 1:5 (by volume) with methanol. Diluted samples were analyzed by high-performance liquid chromatography (HPLC) at a UV absorbance of 245 nm using a Phenomenex Kromasil C4 column and a mobile phase of 45% (0.2% H3PO4)/55% acetonitrile. After sampling, the contents of the tubes were mixed on the vortex mixer and allowed to stand undisturbed at 37° C. until the next sample was taken. Samples were collected at 4, 10, 20, 40, 90, and 1200 minutes.
This example illustrates that combining concentration-enhancing polymer with a drug/substrate adsorbate results in improved concentration enhancement. The adsorbate of Example 9, consisting of 25 wt % Drug 2 and 75 wt % CAB-O-SIL M-5P, was evaluated in an in vitro dissolution test using the procedure describe in Example 2, except that 7.2 mg of the adsorbate, or 1.8 mg of Control 2B, was added to a microcentrifuge tube containing 1.8 mL PBS alone, or 1.8 mL PBS with 3.6 mg of the concentration-enhancing polymer polyoxyethylene-polyoxypropylene block copolymer (Pluronic® F-127, available from BASF Corp.) HPLC analysis of Drug 2 was performed as described in Example 7. […]

A short description of series [2]: in vitro dissolution test, microcentrifuge method, Drug 3 in 0.5 wt % MFD solution. The procedure: The adsorbate of Example 17 was evaluated in an in vitro dissolution test as in Example 2 using 1.44 mg of the adsorbate of […], or 0.36 mg of crystalline Drug 3 (Control 3) in a microcentrifuge tube with 1.8 ml of 0.5 wt % MFD solution. Samples were analyzed by HPLC at a UV absorbance of 254 nm using a Phenomex ODS 20 column and a mobile phase consisting of 60% 0.02 M KH2PO4(pH 3.0)/40% acetonitrile.
The drug/substrate adsorbate of Example 35 was evaluated in an in vitro dissolution test using the procedure described in Example 18, except that 1.44 mg of the adsorbate, or 0.36 mg of Control 3B, was added to a microcentrifuge tube containing 1.8 mL 0.5 wt % MFD solution at pH 6.5.
The drug/concentration-enhancing polymer/substrate adsorbate of Example 37 was evaluated in an in vitro dissolution test using the procedure described in Example 18, except that 1.96 mg of the adsorbate, or 0.39 mg of Control 3A, was added to a microcentrifuge tube containing 1.8 mL 0.5 wt % MFD solution at pH 6.5.

Series [3] can be described thus: in vitro dissolution test, microcentrifuge method, Drug 4 in PBS. Also noted: AUC / AUC90: concentration or dose not given beside the values. The procedure:
as §1, with “minutes. […]” for “minutes.”
The adsorbate of Example 23 was evaluated in the in vitro dissolution test described in Example 22. In this test, 45 mg of the adsorbate of Example 23 was added to the microcentrifuge tubes used in the test. Samples for this test were collected at 4, 10, 20, 40, 90, and 1200 minutes.

The nature of series [4]: accelerated storage test of physical stability (PXRD).
Protocol: The stability of Example 1 adsorbate was evaluated in an accelerated storage test. The adsorbate was stored under elevated temperature and humidity conditions to increase the rate of physical changes occurring in the material in order to simulate a longer storage interval in a typical storage environment. Samples of the adsorbate and Control 1B were stored at 40° C./75% relative humidity (RH). Samples were analyzed using a powder X-ray diffraction (PXRD) technique using a Bruker AXS D8 Advance diffractometer as follows. The X-ray tube (KCu, 1.54184 Å) was operated at a voltage of 45 kV and a current of 40 mA with the beam focused through a Göbel mirror and a series of slits into a line focus. Diffractograms were typically collected over the 2□ range of 4° to 40° with a step size of 0.02°/step. Data were collected for a minimum time of 2.4 sec/step. Scans were obtained by holding the tube at a constant angle (to keep the illuminated area of the sample constant) and scanning a scintillation-counter detector fitted with a thin film collimator through 2□. […]
Samples of the adsorbate of Example 9 were assessed for physical stability by storing them for 12 weeks at 50° C./75% RH. […]
The physical stability of the adsorbate of Example 23 was evaluated by storing samples of the adsorbate at 40° C. and 75% relative humidity and periodically withdrawing samples and analyzing them by PXRD.
[5] abbreviates: 1200 min, 0.5 wt % MFD solution.

For `CCOC(=O)N1c2ccc(C(F)(F)F)cc2[C@@H](N(Cc2cc(C(F)(F)F)cc(C(F)(F)F)c2)C(=O)OC)C[C@H]1CC` [Control 2B, [2R,4S] 4-[(3,5-bis-trifluoromethyl-benzyl)-methoxycarbonyl-amino]-2-ethyl-6-trifluoromethyl-3,4-dihydro-2H-quinoline-1-carboxylic acid ethyl ester], the area under the curve (AUC) is 0 µg·min/mL in series [1] (0 min); <2 µg·min/mL in series [1] (4 min); <8 µg·min/mL in series [1] (10 min); <18 µg·min/mL in series [1] (20 min); <38 µg·min/mL in series [1] (40 min); <88 µg·min/mL in series [1] (90 min). In addition, in series [1] (1200 min), the area under the curve (AUC) was <1,200 min * μg/mL. Further, the “Drug 2 Concentration” value in series [1] (0 min), in series [1] (4 min), in series [1] (10 min), in series [1] (20 min), in series [1] (40 min) and in series [1] (90 min) was <1 μgA/mL in each case. In addition, in series [1] (1200 min), the “Drug 2 Concentration” value was <1 μgA/mL. Also, the AUC90 in series [1] (Drug 2, PBS) was <88 µg·min/mL. Also, the C1200 in series [1] (Drug 2, PBS) is given as <1 μgA/mL.

`O=C1Cc2cc(CCN3CCN(c4nsc5ccccc45)CC3)c(Cl)cc2N1` [Control 3A] returned an AUC in series [2] (0 min, 0.5 wt % MFD solution) of 0 µg·min/mL. Also, the “Drug 3 Concentration” value in series [2] (0 min, 0.5 wt % MFD solution, 0.36 mg crystalline drug added) worked out at 0 μgA/mL; in series [2] (1200 min, 0.5 wt % MFD solution, 0.36 mg crystalline drug added), 5 μgA/mL; in series [2] (1200 min, 0.5 wt % MFD solution, 0.39 mg crystalline drug added, pH 6.5) it was 9 μgA/mL. The same compound returned a C1200 in series [2] (Drug 3, 0.5 wt % MFD solution) of 9 μgA/mL. Further, in series [2] (Drug 3, 0.5 wt % MFD solution), the “Cmax,90” value came out at 3000 ng/mL.

For the compound `O=C1Cc2cc(CCN3CCN(c4nsc5ccccc45)CC3)c(Cl)cc2N1` [Control 3B], the exposure (AUC) is 0 µg·min/mL in series [2] (0 min, 0.5 wt % MFD solution); 0 µg·min/mL in series [2] (4 min, 0.5 wt % MFD solution); 0 µg·min/mL in series [2] (10 min, 0.5 wt % MFD solution); 0 µg·min/mL in series [2] (20 min, 0.5 wt % MFD solution); 100 µg·min/mL in series [2] (40 min, 0.5 wt % MFD solution); 200 µg·min/mL in series [2] (90 min, 0.5 wt % MFD solution). The area under the curve (AUC) in series [2] (setting [5]) is given as 2,400 min * μg/mL. Further, the “Drug 3 Concentration” value in series [2] (0 min, 0.5 wt % MFD solution) amounted to 0 μgA/mL; in series [2] (4 min, 0.5 wt % MFD solution), 2 μgA/mL; in series [2] (10 min, 0.5 wt % MFD solution), 2 μgA/mL; in series [2] (20 min, 0.5 wt % MFD solution), 2 μgA/mL; in series [2] (40 min, 0.5 wt % MFD solution) it was 2 μgA/mL; in series [2] (90 min, 0.5 wt % MFD solution), 2 μgA/mL. For the same compound, in series [2] (setting [5]), the “Drug 3 Concentration” value is 2 μgA/mL. Also, the AUC90 in series [2] (Drug 3, 0.5% MFD) came to 200 µg·min/mL. This compound also displayed a C1200 in series [2] (Drug 3, 0.5 wt % MFD solution) of 2 μgA/mL.

For `COc1ccc2c(c1)c(CC(=O)O)c(C)n2C(=O)c1ccc(Cl)cc1` [Control 4, Indomethacin], the exposure (AUC) in series [3] (0 min) was 0 µg·min/mL; in series [3] (4 min), 630 µg·min/mL; in series [3] (10 min), 2,600 min * μg/mL; in series [3] (20 min), 7,300 min * μg/mL; in series [3] (40 min) it was 8,100 min * μg/mL; in series [3] (90 min), 41,700 min * μg/mL. The AUC in series [3] (1200 min) is 527,700 min * μg/mL. The “Drug 4 Concentration” value in series [3] (0 min) was found to be 0 μgA/mL; in series [3] (4 min), 320 μgA/mL; in series [3] (10 min), 340 μgA/mL; in series [3] (20 min) it was 610 μgA/mL; in series [3] (40 min) it was 460 μgA/mL; in series [3] (90 min) it was 480 μgA/mL. Further, in series [3] (1200 min), the “Drug 4 Concentration” value is given as 400 μgA/mL. Also, the AUC90 in series [3] (Drug 4) is given as 41,700 min * μg/mL.

In series [4] (4 days at 40° C. and 75% relative humidity), `COc1ccc2c(c1)c(CC(=O)O)c(C)n2C(=O)c1ccc(Cl)cc1` [amorphous control, Indomethacin] yielded a crystallization rate of 20 %/day. Moreover, in series [4] (after 4 days of storage at 40° C. and 75% relative humidity, PXRD), the “crystallinity of the drug” value is listed as “more than 80%”.
